Reference: BigSolDB 2.1

c1ccc2[nH]cnc2c1
solubility (mole fraction)
Conditions | 283.15 K | 288.15 K | 293.15 K | 298.15 K | 303.15 K | 308.15 K | 313.15 K | 318.15 K | 323.15 K
in 1,4-dioxane | 0.0138 | 0.0171 | 0.0192 | 0.0215 | 0.0242 | 0.0256 | 0.0292 | 0.0321 | 0.0384
in 2-butanone | 0.0222 | 0.0265 | 0.03 | 0.0341 | 0.0393 | 0.0451 | 0.0521 | 0.0582 | 0.0664
in acetone | 0.0192 | 0.022 | 0.0256 | 0.0296 | 0.0342 | 0.0398 | 0.0452 | 0.0525 | 0.0576
in acetonitrile | 0.00513 | 0.0063 | 0.00754 | 0.00905 | 0.0107 | 0.0123 | 0.0148 | 0.0166 | 0.0194
in ethanol | 0.0767 | 0.0837 | 0.0911 | 0.0993 | 0.109 | 0.118 | 0.125 | 0.14 | 0.152
in ethyl acetate | 0.00813 | 0.0094 | 0.0108 | 0.0128 | 0.0143 | 0.0167 | 0.0193 | 0.0223 | 0.0259
in isobutanol | 0.0747 | 0.083 | 0.0947 | 0.103 | 0.114 | 0.125 | 0.134 | 0.139 | 0.156
in isobutyl acetate | 0.00698 | 0.00808 | 0.00944 | 0.0103 | 0.0122 | 0.0137 | 0.016 | 0.0176 | 0.0197
in isopropanol | 0.0636 | 0.073 | 0.0785 | 0.0852 | 0.0959 | 0.109 | 0.117 | 0.13 | 0.134
in isopropyl acetate | 0.00761 | 0.00867 | 0.01 | 0.0113 | 0.0132 | 0.0152 | 0.0169 | 0.0191 | 0.0219
in methanol | 0.0888 | 0.097 | 0.105 | 0.113 | 0.12 | 0.129 | 0.143 | 0.157 | 0.17
in methyl acetate | 0.00781 | 0.00918 | 0.0108 | 0.0126 | 0.0146 | 0.0167 | 0.0198 | 0.0228 | 0.0265
in n-butanol | 0.0857 | 0.091 | 0.105 | 0.113 | 0.121 | 0.13 | 0.141 | 0.15 | 0.161
in n-butyl acetate | 0.0064 | 0.00759 | 0.00873 | 0.0102 | 0.0121 | 0.0144 | 0.0166 | 0.0182 | 0.0216
in n-pentanol | 0.0983 | 0.105 | 0.109 | 0.119 | 0.129 | 0.137 | 0.143 | 0.155 | 0.165
in n-propanol | 0.0798 | 0.0896 | 0.0961 | 0.107 | 0.113 | 0.121 | 0.137 | 0.147 | 0.156
in n-propyl acetate | 0.00645 | 0.0076 | 0.009 | 0.0105 | 0.0127 | 0.0141 | 0.0165 | 0.0189 | 0.0219
in sec-butanol | 0.0881 | 0.0973 | 0.105 | 0.11 | 0.117 | 0.127 | 0.137 | 0.151 | 0.162
in water | 0.000498 | 0.000604 | 0.000739 | 0.000874 | 0.000994 | 0.00115 | 0.00133 | 0.00156 | 0.00184
